From patent US4925865A, “Antimycotic agents” (Bayer Aktiengesellschaft, priority 1987, dated 1990)
≈ marks a conversion by molar mass, not a printed value.

Experiments:
[1] = system: dermatophytes, Blastomycetes and yeasts; assay: Antimycotic in vitro activity, serial dilution test, overall comparison; format: cell-based
Procedure: (§1) The in vitro tests were carried out in the serial dilution test using inocula of microorganisms of approximately 5×10^3 to 10^4 microorganisms/ml of substrate. The nutrient medium used was (a) for dermatophytes and Blastomycetes: Sabouraud's test medium (b) for yeasts: meat extract/dextrose broth. The incubation temperature was 28° C. to 37° C., and the incubation period was 24 to 96 hours with yeasts and 96 hours with dermatophytes and Blastomycetes.

[2] = system: Trichophyton mentagr.; assay: Antimycotic in vitro activity, serial dilution test, Trichophyton mentagr.; format: cell-based, Trichophyton mentagrophytes; settings: Sabouraud's test medium, 28-37° C., 96 hours
Procedure: as §1

[3] = system: Candida albicans; assay: Antimycotic in vitro activity, serial dilution test, Candida albicans; format: cell-based; settings: meat extract/dextrose broth, 28-37° C., 24 to 96 hours
Procedure: as §1

[4] = system: Torulopsis glabrata; assay: Antimycotic in vitro activity, serial dilution test, Torulopsis glabrata; format: cell-based; settings: Nakaseomyces glabratus; 28-37° C., 24 to 96 hours
Procedure: as §1

[5] = system: Aspergillus fumigatus; assay: Antimycotic in vitro activity, serial dilution test, Aspergillus fumigatus; format: cell-based; settings: 28-37° C.
Procedure: as §1

[6] = system: Candida; assay: Antimycotic in vivo activity (oral) in mouse candidiasis; set-up: species or system mouse (SPF-CF1 type); settings: for action compared with compounds (A) and (B): oral 10-100 mg/kg; for Action (survival on the 6th day post infection): oral 10-100 mg/kg one hour before and seven hours after i.v. inoculation
Procedure: Mice of the SPF-CF1 type were intravenously inoculated with 1-2×10^6 logarithmically growing Candida cells, suspended in physiological saline solution. One hour before and seven hours after the inoculation, the animals are in each case orally treated with 10-100 mg/kg of body weight of the preparation. Untreated animals died 3 to 6 days post infection. The survival rate on the 6th day post infection was about 5% in untreated control animals.

[7] = system: Microsporum canis; assay: Antimycotic in vitro activity, serial dilution test, Microsporum canis; format: cell-based; settings: Sabouraud's test medium, 28-37° C., 96 hours
Procedure: as §1

[8] = system: mycoses; settings: compare EP-OS No.0,180,850; cited from earlier work

MIC [2]	MIC [3]	MIC [4]	MIC [5]	MIC [7]	Structure (SMILES)	antimycotic activity compared with compounds (A) and (B) [1]	action compared with compounds (A) and (B) [6]	Action (survival on the 6th day post infection) [6]	antimycotic properties [8]
< 1 µg/mL	2 µg/mL (≈ 5.95 µM)	2 µg/mL (≈ 5.95 µM)	< 1 µg/mL	4 µg/mL (≈ 11.9 µM)	CSC1(C(O)(C=Cc2ccc(Cl)cc2)Cn2cncn2)CC1 (stereo not shown) [Compound I-13]	better antimycotic activity than the compounds (A) and (B)	better action than the compounds (A) and (B)	+++++ (very good action = 90% survival on the 6th day post infection)	–
< 1 µg/mL	2 µg/mL (≈ 5.43 µM)	4 µg/mL (≈ 10.9 µM)	< 1 µg/mL	< 1 µg/mL	OC(C=Cc1ccc(Br)cc1)(Cn1cncn1)C1(Cl)CC1 (stereo not shown) [Compound I-30]	better antimycotic activity than the compounds (A) and (B)	better action than the compounds (A) and (B)	+++++ (very good action = 90% survival on the 6th day post infection)	–
< 1 µg/mL	4 µg/mL (≈ 11.8 µM)	16 µg/mL (≈ 47.4 µM)	< 1 µg/mL	2 µg/mL (≈ 5.92 µM)	CSC1(C(O)(CCc2ccc(Cl)cc2)Cn2cncn2)CC1 (stereo not shown) [Compound I-6]	better antimycotic activity than the compounds (A) and (B)	better action than the compounds (A) and (B)	+++ (action = 60% survival on the 6th day post infection)	–
< 1 µg/mL	16 µg/mL (≈ 42.6 µM)	4 µg/mL (≈ 10.6 µM)	< 1 µg/mL	4 µg/mL (≈ 10.6 µM)	OC(CCc1ccc(OC(F)(F)F)cc1)(Cn1cncn1)C1(Cl)CC1 (stereo not shown) [Compound I-24]	better antimycotic activity than the compounds (A) and (B)	–	–	–
< 1 µg/mL	8 µg/mL (≈ 21.4 µM)	< 1 µg/mL	< 1 µg/mL	< 1 µg/mL	OC(C=Cc1ccc(OC(F)(F)F)cc1)(Cn1cncn1)C1(Cl)CC1 (stereo not shown) [Compound I-33]	better antimycotic activity than the compounds (A) and (B)	better action than the compounds (A) and (B)	+++++ (very good action = 90% survival on the 6th day post infection)	–
< 1 µg/mL	16 µg/mL (≈ 44.6 µM)	8 µg/mL (≈ 22.3 µM)	< 1 µg/mL	< 1 µg/mL	OC(C=Cc1ccc(Cl)cc1Cl)(Cn1cncn1)C1(Cl)CC1 (stereo not shown) [Compound I-29]	better antimycotic activity than the compounds (A) and (B)	better action than the compounds (A) and (B)	+++ (action = 60% survival on the 6th day post infection)	–
< 1 µg/mL	8 µg/mL (≈ 25.8 µM)	32 µg/mL (≈ 103 µM)	< 1 µg/mL	4 µg/mL (≈ 12.9 µM)	OC(CCc1ccc(F)cc1)(Cn1cncn1)C1(Cl)CC1 (stereo not shown) [Compound I-12]	better antimycotic activity than the compounds (A) and (B)	–	–	–
< 1 µg/mL	2 µg/mL (≈ 6.13 µM)	< 1 µg/mL	< 1 µg/mL	< 1 µg/mL	OC(CCc1ccc(Cl)cc1)(Cn1cncn1)C1(Cl)CC1 (stereo not shown) [Compound I-1, 2-(1-chlorocyclopropyl)-4-(4-chlorophenyl)-1-(1,2,4-triazol-1-yl)-butan-2-ol]	better antimycotic activity than the compounds (A) and (B)	better action than the compounds (A) and (B)	+++ (action = 60% survival on the 6th day post infection)	–
< 1 µg/mL	4 µg/mL (≈ 13.7 µM)	8 µg/mL (≈ 27.4 µM)	< 1 µg/mL	2 µg/mL (≈ 6.85 µM)	OC(CCc1ccccc1)(Cn1cncn1)C1(Cl)CC1 (stereo not shown) [Compound I-23]	better antimycotic activity than the compounds (A) and (B)	–	–	–
< 1 µg/mL	2 µg/mL (≈ 5.55 µM)	2 µg/mL (≈ 5.55 µM)	< 1 µg/mL	4 µg/mL (≈ 11.1 µM)	OC(CCc1ccc(Cl)cc1Cl)(Cn1cncn1)C1(Cl)CC1 (stereo not shown) [Compound I-22]	better antimycotic activity than the compounds (A) and (B)	–	–	–
2 µg/mL (≈ 5.17 µM)	4 µg/mL (≈ 10.3 µM)	4 µg/mL (≈ 10.3 µM)	< 1 µg/mL	–	OC(C=Cc1ccc(F)c(Br)c1)(Cn1cncn1)C1(Cl)CC1 (stereo not shown) [Compound I-34]	better antimycotic activity than the compounds (A) and (B)	better action than the compounds (A) and (B)	+++ (action = 60% survival on the 6th day post infection)	–
< 1 µg/mL	4 µg/mL (≈ 12.3 µM)	16 µg/mL (≈ 49 µM)	2 µg/mL (≈ 6.13 µM)	2 µg/mL (≈ 6.13 µM)	OC(CCc1ccccc1Cl)(Cn1cncn1)C1(Cl)CC1 (stereo not shown) [Compound I-19]	better antimycotic activity than the compounds (A) and (B)	–	–	–

Structure (SMILES)	MIC [2]	MIC [3]	MIC [4]	MIC [5]	MIC [7]	antimycotic activity compared with compounds (A) and (B) [1]	action compared with compounds (A) and (B) [6]	Action (survival on the 6th day post infection) [6]	antimycotic properties [8]
OC(Cn1cncn1)(c1ccc(Cl)cc1)C1(F)CC1 (stereo not shown) [(A), 1-(4-chlorophenyl)-1-(1-fluoro-cycloprop-1-yl)-2-(1,2,4-triazol-1-yl)-ethan-1-ol, reference compound]	> 64 µg/mL	> 64 µg/mL	–	> 64 µg/mL	–	–	–	–	exhibit antimycotic properties
OC(Cn1cncn1)(c1ccc(Cl)cc1)C1(Oc2ccc(Cl)cc2Cl)CC1 (stereo not shown) [(B), 1-(4-chlorophenyl)-1-[1-(2,4-dichlorophenoxy)-cycloprop-1-yl]-2-(1,2,4-triazol-1-yl)-ethan-1-ol, reference compound]	64 µg/mL (≈ 151 µM)	16 µg/mL (≈ 37.7 µM)	64 µg/mL (≈ 151 µM)	> 64 µg/mL	–	–	–	–	exhibit antimycotic properties
